From PMC9814779, “A triple farnesoid X receptor and peroxisome proliferator-activated receptor α/δ activator reverses hepatic fibrosis in diet-induced NASH in mice” (Communications Chemistry, 2020)

System: FXR- and PPAR-regulated gene expression in HepG2 cells
Assay: FXR- and PPAR-regulated gene expression in HepG2 cells (qRT-PCR)
Type: cell-based, human
Settings: 12 h
Method: HepG2 cells (DSMZ) were grown in DMEM high glucose, supplemented with 10% FCS, 1 mM SP, penicillin (100 U/mL), and streptomycin (100 μg/mL) at 37 °C and 5% CO2 and seeded in 6-well plates (2 × 10^6 per well). After 24 h, medium was changed to Minimal Essential Medium supplemented with 1% charcoal-stripped FCS, penicillin (100 U/mL), streptomycin (100 μg/mL), and 2 mM L-glutamine. After an additional 24 h, cells were incubated with test compound 41 (0.1 µM, 0.3 µM, 1 μM), OCA (1 μM), or elafibranor (1 µM) dissolved in the same medium with 0.1% DMSO or medium with 0.1% DMSO alone as untreated control for 12 h, harvested, washed with cold phosphate-buffered saline (PBS), and then directly used for RNA extraction. C2C12 cells (American Type Culture Collection, ATCC) were grown in DMEM high glucose, supplemented with 10% FCS, 1 mM SP, penicillin (100 U/mL), and streptomycin (100 μg/mL) at 37 °C and 5% CO2 and seeded in 6-well plates (1 × 10^6 per well). Upon reaching confluence, medium was changed to Eagle’s Minimal Essential Medium supplemented with 2% horse serum, penicillin (100 U/mL), streptomycin (100 μg/mL), and 2 mM L-glutamine. Cells were then differentiated in this medium for 5 days before incubation with test compounds 41 (1 μM) or L165,041 (1 μM) dissolved in the same medium with 0.1% DMSO or medium with 0.1% DMSO alone as untreated control for 8 h. Cells were harvested, washed with cold PBS, and then directly used for RNA extraction. Total RNA was extracted from HepG2 cells or C2C12 cells using the total RNA Mini Kit (R6834-02, Omega Bio-Tek, Inc., Norcross, GA, USA). Two micrograms of extracted RNA were then reverse-transcribed into cDNA with the High-Capacity cDNA Reverse Transcription Kit (4368814, Thermo Fischer Scientific, Inc.). FXR- and PPAR-regulated gene expression was then studied by quantitative real-time PCR (qRT-PCR) analysis with a StepOnePlus System (Life Technologies, Carlsbad, CA, USA) using PowerSYBRGreen (Life Technologies; 12.5 μL per well). Each sample was set up in duplicates and repeated in four independent experiments. Data were analyzed by the comparative ΔΔCT method with glyceraldehyde 3-phosphate dehydrogenase (GAPDH) as reference gene. The following primers were used for HepG2 cells (human genes): hGAPDH: 5 ′-ATATGATTCCACCCATGGCA (fw), 5′-GATGATGACCCTTTTGGCTC (rev); hSHP: 5′-GCTGTCTGGAGTCCTTCTGG (fw), 5′-CCAATGATAGGGCGAAAGAAGAG (rev); hCYP7A1: 5′-CACCTTGAGGACGGTTCCTA (fw), 5′-CGATCCAAAGGGCATGTAGT (rev); hBSEP: 5′-CATGGTGCAAGAAGTGCTGAGT (fw), 5′-AAGCGATGAGCAACTGAAATGAT (rev); hACOX: 5′-ACT CGC AGC CAG CGT TAT G (fw), 5′-AGG GTC AGC GAT GCC AAA C (rev); hPDK4: 5′-AGAGCCTGATGGATTTGGTG (fw), 5′-GCTTGGGTTTCCTGTCTGTG (rev); hCPT1: 5′-ACAGTCGGTGAGGCCTCTTAT (fw), 5′-TCTTGCTGCCTGAATGTGAGT (rev); hFGF21: 5′-ATGGATCGCTCCACTTTGACC (fw), 5′-GGGCTTCGGACTGGTAAACAT (rev). The following primers were used for C2C12 cells (murine genes)[36]: mGAPDH: 5′-CGACTTCAACAGCAACTCCCACTCTTCC (fw), 5′-TGGGTGGTCCAGGGTTTCTTACTCCTT (rev); mPCK: 5′-TGTTTACTGGGAAGGCATCG (fw), 5′-CAGAATCTCGAGTTGGGATGG (rev); mGLUT3: 5′-CGTCCTTGAAGATTCCTGTTGA (fw), 5′-GTC ACC CAA CTA CGT CCA G (rev); mLPL: 5′-GTCAGGTTCTCTCTTGTACAGG (fw), 5′-TCTAACTGCCACTTCAACCAC (rev).

[1] = HepG2, 1 µM, vs. vehicle-treated cells

Compound	mRNA expression of FXR-regulated genes (BSEP, SHP, CYP7A1) [1]	mRNA expression of PPAR-regulated genes (ACOX, PDK4, CPT1, FGF21) [1]	dose dependence of BSEP, PDK4 and CPT1 expression (HepG2, 0.1 µM, 0.3 µM, 1 μM)
CC[C@H]1[C@@H](O)[C@@H]2[C@H](CC[C@]3(C)[C@@H]([C@H](C)CCC(=O)O)CC[C@@H]23)[C@@]2(C)CC[C@@H](O)C[C@@H]12 [OCA, 6α-ethylchenodeoxycholic acid, reference compound]	upregulation of BSEP and small heterodimer partner (SHP) mRNA as well as downregulation of CYP7A1	slightly induced ACOX and FGF21 expression	–
CC(C)(C)c1ccc(C(=O)Nc2cccc(CCC(=O)O)c2)c(NC(=O)c2ccc(-c3ccco3)cc2)c1 [compound 41, 3-(3-[4-{tert-Butyl}-2-{4-(2-furyl)}benzamido]phenyl)propanoic acid]	upregulation of BSEP and small heterodimer partner (SHP) mRNA as well as downregulation of CYP7A1	–	dose-dependent effects
